The values below come from patent US20250221988A1 (Cullgen (Shanghai), Inc., priority 2022, published 2025).

Like-named read-outs stand apart in the source and are kept apart here.

One data set deals with NCI-H1155 cells. Kind of data set: Cell viability assay in NCI-H1155 cells. Format: cell-based. The following applies: Homo sapiens, read-out: NCI-H115 IC50. On the procedure:
(§1) Cell Culture: RS4;11, MV4;11, MOLM-13 and other cells were cultured at 37° C. with 5% CO2 in RPMI 1640 or DMEM Medium supplemented with 10% fetal bovine serum. Cells were authenticated using the short tandem repeat (STR) assays. Mycoplasma test results were negative.
(§2) Cell viability assays: Cells were seeded at a density of 5000 cells per well in 96-well assay plates and treated with test compounds following a 8-point or 12-point 3-fold serial dilution. Three days later, cell viability was determined using the CellTiter-Glo assay kit according to the manufacturer's instructions. The dose-response curves were determined and IC50 values were calculated using the GraphPad Prism software following a nonlinear regression (least squares fit) method.
(§3) The compounds were tested in HEL, 22RV1, NCI-H82 or NCI-H1155 cells.

A further data set concerns MV4;11 cells. Kind of data set: Cell viability assay (CellTiter-Glo) in MV4;11 cells. Format: cell-based. The following applies: MV4;11 cells, three days, read-out: MV4. The method in brief:
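5000 cells/well in RPMI 1640 or DMEM with 10% FBS, treated with 8- or 12-point 3-fold compound dilutions, with or without gilteritinib (10 nM for MV4;11, 20 nM for MOLM-13). Viability by CellTiter-Glo after three days; IC50 by nonlinear least-squares regression.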
In general terms: Cellular ATP, detected with luciferase, serves as a proxy for viable cell number.

The target of data set [1] is T1, GSPT1 (Homo sapiens, UniProt P15170+Q96SW2). The experiment in a line: Immunoblotting of GSPT1 in MOLM-13 cells. Format: cell-based. Details: endogenous in cells; host or cells: MOLM-13. To be noted: indicated concentrations, 16 hours. As for the experimental part:
as §1
Antibodies and reagents: Rabbit anti-FLT3 antibody (3462S) was purchased from Cell Signaling Technology. Rabbit anti-GSPT1 antibody (ab126090) was purchased from Abeam. HRP-conjugated anti-α-tubulin antibody was produced in house. Media and other cell culture reagents were purchased from Thermo Fisher. The CellTiter-Glo Luminescent Assay kit was purchased from Promega.
Immunoblotting: Cultured cells were washed with cold PBS once and lysed in cold RIPA buffer supplemented with protease inhibitors and phosphatase inhibitors (Beyotime Biotechnology). The solutions were then incubated at 4° C. for 30 minutes with gentle agitation to fully lyse cells. Cell lysates were centrifuged at 13,000 rpm for 10 minutes at 4° C. and pellets were discarded. Total protein concentrations in the lysates were determined by BCA assays (Beyotime Biotechnology). Cell lysates were mixed with Laemmli loading buffer to 1× and heated at 99° C. for 5 min. Proteins were resolved on SDS-PAGE and visualized by chemiluminescence. Images were taken by a ChemiDoc MP Imaging system (Bio-Rad). Protein bands were quantitated using the accompanied software provided by Bio-Rad.
Background: In western blotting, separated proteins are transferred to a membrane and probed.

Another data set has as its system MOLM-13 cells. The experiment in a line: Cell viability assay (CellTiter-Glo) in MOLM-13 cells. Format: cell-based. To be noted: MOLM-13 cells, three days.
Another data set has as its system HEL cells. The experiment in a line: Cell viability assay in HEL cells. The following applies: Homo sapiens. Format: cell-based. On the procedure:
as §1, §2, §3

The subject of a further data set is NCI-H82 cells. The experiment in a line: Cell viability assay in NCI-H82 cells. Format: cell-based. The following applies: Homo sapiens. As for the experimental part: as §1, §2, §3
The next data set concerns 22RV1 cells. Kind of data set: Cell viability assay in 22RV1 cells. Format: cell-based. The following applies: Homo sapiens. As for the experimental part: as §1, §2, §3
In a further data set the test system is tested cell lines. The following applies: Matyskiela, Lu et al. 2016; cited from earlier work.
The target in data set [2] is T1, GSPT1. Further details: MOLM-13 cells were treated at indicated concentrations with compounds GS-729, GS-731, GS-697, and GS-788 for 16 hours prior to immunoblotting; endogenous in cells; host or cells: MOLM-13. The following applies: Matyskiela, Lu et al. 2016; cited from earlier work.
[3] abbreviates: Homo sapiens, MV4-11, 72 h, compound alone, 11 IC50.
Setting [4] is: with 10 nM gilteritinib, 11 IC50 (nM) + 10 nM Gil.
Where [5] appears, read: Homo sapiens, 72 h, compound alone, read-out: MOLM-13 IC50.
Setting [6] is: with gilteritinib, read-out: MOLM-13 IC50 (nM) + 10 nM Gil.

T1 sequence (P15170 whole entry): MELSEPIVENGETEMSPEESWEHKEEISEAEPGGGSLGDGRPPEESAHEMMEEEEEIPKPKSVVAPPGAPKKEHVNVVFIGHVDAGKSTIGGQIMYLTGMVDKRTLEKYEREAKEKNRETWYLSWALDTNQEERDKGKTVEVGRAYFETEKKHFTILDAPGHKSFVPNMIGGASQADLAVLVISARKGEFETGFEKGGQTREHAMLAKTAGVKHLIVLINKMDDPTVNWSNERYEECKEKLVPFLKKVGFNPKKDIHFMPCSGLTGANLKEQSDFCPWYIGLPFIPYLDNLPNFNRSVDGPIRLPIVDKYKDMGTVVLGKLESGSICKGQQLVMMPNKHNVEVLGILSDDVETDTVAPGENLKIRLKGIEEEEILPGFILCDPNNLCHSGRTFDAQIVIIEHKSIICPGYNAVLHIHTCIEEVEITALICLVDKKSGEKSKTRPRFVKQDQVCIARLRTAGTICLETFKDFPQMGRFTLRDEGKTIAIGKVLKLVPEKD
T1 sequence (Q96SW2 whole entry): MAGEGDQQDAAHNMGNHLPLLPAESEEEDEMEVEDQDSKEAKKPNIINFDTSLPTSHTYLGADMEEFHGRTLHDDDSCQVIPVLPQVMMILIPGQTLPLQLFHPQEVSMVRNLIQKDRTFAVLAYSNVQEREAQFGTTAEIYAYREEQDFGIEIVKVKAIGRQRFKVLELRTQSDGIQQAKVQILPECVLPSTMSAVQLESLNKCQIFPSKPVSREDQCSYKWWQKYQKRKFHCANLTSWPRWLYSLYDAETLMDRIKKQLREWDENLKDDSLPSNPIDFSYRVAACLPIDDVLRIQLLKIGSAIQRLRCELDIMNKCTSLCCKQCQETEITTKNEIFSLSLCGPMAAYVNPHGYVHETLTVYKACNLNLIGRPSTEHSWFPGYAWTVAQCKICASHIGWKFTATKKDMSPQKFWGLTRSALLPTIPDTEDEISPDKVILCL
T1 sequence (Q16531 whole entry partner): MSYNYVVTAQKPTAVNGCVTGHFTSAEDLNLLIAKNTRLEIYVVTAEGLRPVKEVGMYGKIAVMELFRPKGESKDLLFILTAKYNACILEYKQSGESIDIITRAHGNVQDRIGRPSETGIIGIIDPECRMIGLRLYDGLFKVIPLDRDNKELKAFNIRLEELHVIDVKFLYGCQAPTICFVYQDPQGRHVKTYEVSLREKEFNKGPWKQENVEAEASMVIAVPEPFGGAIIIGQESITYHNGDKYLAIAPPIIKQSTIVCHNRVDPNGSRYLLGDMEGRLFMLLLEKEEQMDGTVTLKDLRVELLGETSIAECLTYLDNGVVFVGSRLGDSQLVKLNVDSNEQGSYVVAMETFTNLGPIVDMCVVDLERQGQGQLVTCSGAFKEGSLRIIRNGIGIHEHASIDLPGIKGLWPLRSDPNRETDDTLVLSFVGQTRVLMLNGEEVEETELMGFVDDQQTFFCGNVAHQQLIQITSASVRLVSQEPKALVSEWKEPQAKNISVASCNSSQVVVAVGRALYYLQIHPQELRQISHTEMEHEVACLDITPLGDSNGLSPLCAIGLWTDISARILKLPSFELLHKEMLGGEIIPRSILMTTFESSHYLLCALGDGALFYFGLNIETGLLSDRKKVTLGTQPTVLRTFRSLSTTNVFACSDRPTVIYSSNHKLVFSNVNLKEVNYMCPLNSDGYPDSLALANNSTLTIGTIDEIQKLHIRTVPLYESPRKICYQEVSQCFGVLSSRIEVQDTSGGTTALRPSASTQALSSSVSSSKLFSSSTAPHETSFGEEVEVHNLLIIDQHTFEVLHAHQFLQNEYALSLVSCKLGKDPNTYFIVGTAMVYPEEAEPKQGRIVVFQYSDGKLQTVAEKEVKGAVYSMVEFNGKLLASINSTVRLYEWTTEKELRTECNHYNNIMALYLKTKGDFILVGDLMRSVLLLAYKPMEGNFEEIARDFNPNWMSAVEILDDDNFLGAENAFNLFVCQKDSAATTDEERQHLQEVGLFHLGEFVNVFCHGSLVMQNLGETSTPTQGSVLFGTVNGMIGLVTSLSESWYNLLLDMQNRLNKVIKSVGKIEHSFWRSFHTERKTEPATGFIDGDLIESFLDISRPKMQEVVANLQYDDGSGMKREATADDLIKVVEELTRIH

Consider `Nc1cccc(-c2cn([C@H]3C[C@H](CNc4ccc5c(c4)CN(C4CCC(=O)NC4=O)C5=O)C3)nc2C2CC2)n1` (stereo partly drawn) [GS-810, 3-(5-(((Trans-3-(4-(6-aminopyridin-2-yl)-3-cyclopropyl-1H-pyrazol-1-yl)cyclobutyl)methyl)amino)-1-oxoisoindolin-2-yl)piperidine-2,6-dione], for which the IC50 with NCI-H1155 cells was 10 to 100 nM.
Turning to `Cc1nc(-c2cn([C@H]3C[C@H](CNc4ccc5c(c4)CN(C4CCC(=O)NC4=O)C5=O)C3)nc2C2CC2)ccc1F` (stereo partly drawn) [GS-731, 3-(5-(((Trans-3-(3-cyclopropyl-4-(5-fluoro-6-methylpyridin-2-yl)-1H-pyrazol-1-yl)cyclobutyl)methyl)amino)-1-oxoisoindolin-2-yl)piperidine-2,6-dione], the IC50 with MV4;11 cells (setting [3]) was under 10 nM; with MV4;11 cells (setting [4]), under 10 nM; in the data set on MOLM-13 cells (setting [5]), 10 to 100 nM; with MOLM-13 cells (setting [6]), under 10 nM. Further, the “small molecule-mediated targeted degradation of GSPT1” value on GSPT1 [1] is on record as “targeted degradation of GSPT1”.
With `Cc1nc(-c2cn([C@H]3C[C@H](CNc4ccc5c(c4)CN(C4CCC(=O)NC4=O)C5=O)C3)nc2C2CC2)c(F)cc1F` (stereo partly drawn) [GS-809, 3-(5-(((trans-3-(3-cyclopropyl-4-(3,5-difluoro-6-methylpyridin-2-yl)-1H-pyrazol-1-yl)cyclobutyl)methyl)amino)-1-oxoisoindolin-2-yl)piperidine-2,6-dione], the IC50 in the data set on NCI-H1155 cells was under 10 nM.
Turning to `O=C1CCC(N2C(=O)c3ccc(NC[C@H]4C[C@H](n5cc(-c6ncc(F)c7cccnc67)c(C6CC6)n5)C4)cc3C2=O)C(=O)N1` (stereo partly drawn) [GS-697, 5-(((Trans-3-(3-cyclopropyl-4-(5-fluoro-1,7-naphthyridin-8-yl)-1H-pyrazol-1-yl)cyclobutyl)methyl)amino)-2-(2,6-dioxopiperidin-3-yl)isoindoline-1,3-dione], the IC50 in the data set on MV4;11 cells (setting [3]), in the data set with MV4;11 cells (setting [4]), with MOLM-13 cells (setting [5]) and in the data set with MOLM-13 cells (setting [6]) was under 10 nM in each case. The “small molecule-mediated targeted degradation of GSPT1” value at GSPT1 [1] is “targeted degradation of GSPT1”.
Take `Cc1ccc(Cl)c(-c2cn([C@H]3C[C@H](CNc4ccc5c(c4)CN(C4CCC(=O)NC4=O)C5=O)C3)nc2C2CC2)n1` (stereo partly drawn) [GS-805, 3-(5-(((Trans-3-(4-(3-chloro-6-methylpyridin-2-yl)-3-cyclopropyl-1H-pyrazol-1-yl)cyclobutyl)methyl)amino)-1-oxoisoindolin-2-yl)piperidine-2,6-dione]: in the data set with HEL cells, the IC50 was under 10 nM.
For the compound `Cc1ccc(F)c(-c2cn([C@H]3C[C@H](CNc4ccc5c(c4)CN(C4CCC(=O)NC4=O)C5=O)C3)nc2C2CC2)n1` (stereo partly drawn) [GS-807, 3-(5-(((Trans-3-(3-cyclopropyl-4-(3-fluoro-6-methylpyridin-2-yl)-1H-pyrazol-1-yl)cyclobutyl)methyl)amino)-1-oxoisoindolin-2-yl)piperidine-2,6-dione], the IC50 in the data set on NCI-H82 cells, in the data set on HEL cells and with 22RV1 cells was under 10 nM each time.
With `O=C1CCC(N2Cc3cc(NC[C@H]4C[C@H](n5cc(-c6ccc(F)c(C(F)(F)F)n6)c(C6CC6)n5)C4)ccc3C2=O)C(=O)N1` (stereo partly drawn) [GS-803, 3-(5-(((Trans-3-(3-cyclopropyl-4-(5-fluoro-6-(trifluoromethyl)pyridin-2-yl)-1H-pyrazol-1-yl)cyclobutyl)methyl)amino)-1-oxoisoindolin-2-yl)piperidine-2,6-dione], the IC50 in the data set with NCI-H1155 cells and in the data set with MOLM-13 cells (setting [5]) was under 10 nM in each case. The “small molecule-mediated targeted degradation of GSPT1” value on GSPT1 [1] is given as “targeted degradation of GSPT1”.
Regarding `Cn1ncc2ccc(-c3cn([C@H]4C[C@H](CNc5ccc6c(c5)C(=O)N(C5CCC(=O)NC5=O)C6=O)C4)nc3C3CC3)nc21` (stereo partly drawn) [GS-729, 5-(((Trans-3-(3-cyclopropyl-4-(1-methyl-1H-pyrazolo[3,4-b]pyridin-6-yl)-1H-pyrazol-1-yl)cyclobutyl)methyl)amino)-2-(2,6-dioxopiperidin-3-yl)isoindoline-1,3-dione], the IC50 in the data set with MV4;11 cells (setting [3]) is 10 to 100 nM; with MV4;11 cells (setting [4]), under 10 nM; in the data set with MOLM-13 cells (setting [5]), 10 to 100 nM; with MOLM-13 cells (setting [6]), under 10 nM. In addition, at GSPT1 [1], the “small molecule-mediated targeted degradation of GSPT1” value was “targeted degradation of GSPT1”.
Take `Cc1nc(-c2cn([C@H]3C[C@H](CNc4ccc5c(c4)CN(C4CCC(=O)NC4=O)C5=O)C3)nc2C2CC2)c(Cl)cc1F` (some centres unmarked) [GS-812]: the IC50 in the data set on NCI-H82 cells is under 10 nM.
For `O=C1CCC(N2Cc3cc(NC[C@H]4C[C@H](n5cc(-c6ccc(F)c(C(F)F)n6)c(C6CC6)n5)C4)ccc3C2=O)C(=O)N1` (stereo partly drawn) [GS-802, 3-(5-(((Trans-3-(3-cyclopropyl-4-(6-(difluoromethyl)-5-fluoropyridin-2-yl)-1H-pyrazol-1-yl)cyclobutyl)methyl)amino)-1-oxoisoindolin-2-yl)piperidine-2,6-dione], the IC50 in the data set with NCI-H1155 cells and in the data set on MOLM-13 cells (setting [5]) was 10 to 100 nM each time. In addition, the “small molecule-mediated targeted degradation of GSPT1” value on GSPT1 [1] is reported as “targeted degradation of GSPT1”.
For the compound `CNc1nc(-c2cn([C@H]3C[C@H](CNc4ccc5c(c4)CN(C4CCC(=O)NC4=O)C5=O)C3)nc2C2CC2)ccc1F` (stereo partly drawn) [GS-808, 3-(5-(((Trans-3-(3-cyclopropyl-4-(5-fluoro-6-(methylamino)pyridin-2-yl)-1H-pyrazol-1-yl)cyclobutyl)methyl)amino)-1-oxoisoindolin-2-yl)piperidine-2,6-dione], the IC50 in the data set with NCI-H82 cells was under 10 nM.
In the case of `Cc1ccc(NC(=O)NCc2ccc3c(c2)CN(C2CCC(=O)NC2=O)C3=O)cc1Cl` (centres unmarked) [CC-885], the “toxicity in tested cell lines” value in the data set on tested cell lines is recorded as “induced significant toxicity in the vast majority of tested cell lines”. Further, the “cereblon-dependent degradation of GSPT1” value on GSPT1 [2] is “led to cereblon-dependent degradation of GSPT1”.
Take `O=C1CCC(N2Cc3cc(NC[C@H]4C[C@H](n5cc(-c6ncc(F)c7cccnc67)c(C6CC6)n5)C4)ccc3C2=O)C(=O)N1` (stereo partly drawn) [GS-788, 3-(5-(((Trans-3-(3-cyclopropyl-4-(5-fluoro-1,7-naphthyridin-8-yl)-1H-pyrazol-1-yl)cyclobutyl)methyl)amino)-1-oxoisoindolin-2-yl)piperidine-2,6-dione]: the IC50 in the data set on MV4;11 cells (setting [3]), in the data set with MV4;11 cells (setting [4]), in the data set on MOLM-13 cells (setting [5]) and in the data set with MOLM-13 cells (setting [6]) was under 10 nM in each case. At GSPT1 [1], the “small molecule-mediated targeted degradation of GSPT1” value is listed as “targeted degradation of GSPT1”.
For `CNc1cccc(-c2cn([C@H]3C[C@H](CNc4ccc5c(c4)CN(C4CCC(=O)NC4=O)C5=O)C3)nc2C2CC2)n1` (relative stereo) [GS-811, 3-(5-(((Trans-3-(3-cyclopropyl-4-(6-(methylamino)pyridin-2-yl)-1H-pyrazol-1-yl)cyclobutyl)methyl)amino)-1-oxoisoindolin-2-yl)piperidine-2,6-dione], the IC50 in the data set with NCI-H1155 cells was in the range of 10 to 100 nM.
Regarding `Cc1nc(-c2cn([C@H]3C[C@H](CNc4ccc5c(c4)CN([C@H]4CCC(=O)NC4=O)C5=O)C3)nc2C2CC2)ccc1F` [GS-800, (S)-3-(5-(((trans-3-(3-cyclopropyl-4-(5-fluoro-6-methylpyridin-2-yl)-1H-pyrazol-1-yl)cyclobutyl)methyl)amino)-1-oxoisoindolin-2-yl)piperidine-2,6-dione], the IC50 is under 10 nM with NCI-H82 cells, 10 to 100 nM in the data set with HEL cells, under 10 nM in the data set on 22RV1 cells and under 10 nM with MOLM-13 cells (setting [5]).
